# “Also recorded” adds a separate entry of the source. Where two headings read alike, the source gives them in different places.
# Tests used:
# S1P1 [1] = target: T1, S1P1 (Homo sapiens, UniProt P21453); settings: cited from earlier work
# peripheral lymphocytes = settings: mice, 24 h after oral dosing; cited from earlier work
# IL10−/− mice = assay: IL10−/− model of murine colitis; format: in vivo, mouse
# Procedure: IL10−/− and WT mice on the C57BL/6 background are monitored for body weight every other day. IL10−/− mice begins to manifest symptoms of colitis by 4 weeks of age compared with WT mice, including diarrhea and weight loss greater than 5%. Treatment protocols are initiated when the mice are between 14-18 weeks of age.
# By 14−18 weeks of age, IL10−/− mice develop sufficiently severe symptoms of disease to being testing therapeutic treatments. For four weeks, mice are treated weekly with Intraperitoneal (I.P.) anti-TL1a injection and daily with oral FTY720 (S1PR inhibitor, anti-S1PR) according to Table 61. Group 1 serves as the naïve control and Group 2 is treated with isotype and vehicle controls. Groups 3 and 4 test the high dose of either TL1a or S1PR blockade, respectively. Groups 5 and 6 test the low dose of either TL1a or S1PR blockade. Groups 7 and 8 test the high and low dose combination therapies, respectively.
# (§1) At day 28 after initiation of treatment, mice are anaesthetized and bled by cardiac puncture. Blood is kept on ice for 30 minutes and then spun down to separate the serum, which is stored at −80 C for cytokine measurement by MSD. After the terminal bleed, mice are euthanized by CO2 overdose per IACUC guidelines. Colons are harvested for each mouse and measured for length and weight. 1 cm of the middle colon is collected into RNAlater, and kept at room temperature for 2 hours prior to freezing at −80 C. The colonic tissue preserved in RNAlater is processed for mRNA and subjected to bulk RNA sequencing and standard differential gene expression analysis. The remainder of the proximal and distal colon is preserved in 10% NBF at room temperature for 48 hours prior to moving to 70% ethanol. These preserved colonic tissues are sectioned and stained by H&E prior to analysis by a veterinary pathologist for clinical signs of colitis.
# [2] = tested on: Rag2−/− mice receiving CD4+CD45RB+ T cells; assay: T cell transfer model of murine colitis; format: in vivo, mouse
# Excerpt: The murine T cell transfer model of colitis is used to test the synergistic effect of blocking TL1A and S1P on the development of colitis using a mouse-specific TL1A antibody (anti-TL1A) and S1PR functional antagonist (FTY720). To initiate colitis, CD4+CD45RB+ T cells from the spleens of C57BL/6 mice are sorted to >95% purity and transferred by I.V. injection to Rag2−/− mice lacking mature B and T cells (0.5e6 cells/mouse), which are then randomized by weight on day 0. Mice are weighed and monitored for signs of disease every other day for 7 weeks.
# One day prior to the initiation of disease (day-1) and weekly throughout the course of the experiment, mice are treated with a single I.P. injection of anti-TL1A in 0.2 ml total volume according to Table 64. In addition, FTY720 or the appropriate vehicle control is orally dosed daily according to Table 64. Group 1 serve as the naïve control and Group 2 is treated with isotype control antibodies. Groups 3 and 4 test the high dose of either anti-TL1A or FTY720, respectively. Groups 5 and 6 test the low dose of either anti-TL1A or FTY720. Groups 7 and 8 test the high and low dose combination therapies, respectively.
# as §1, with “49” for “28”, “disease induction with CD4+CD45RB+ T cell transfer,” for “initiation of treatment,”, “and” for “and standard”, “These preserved colonic tissues are sectioned and stained by H&E prior to analysis by a veterinary pathologist for clinical signs of colitis.” left out
# S1P1 [3] = target: T1, S1P1; settings: cited from earlier work; remark: listed apart in the source
# S1P3 [4] = target: T2, S1P3 (Homo sapiens, UniProt Q99500); settings: cited from earlier work
# Target sequence in this assay (Q99500 whole entry, species assumed): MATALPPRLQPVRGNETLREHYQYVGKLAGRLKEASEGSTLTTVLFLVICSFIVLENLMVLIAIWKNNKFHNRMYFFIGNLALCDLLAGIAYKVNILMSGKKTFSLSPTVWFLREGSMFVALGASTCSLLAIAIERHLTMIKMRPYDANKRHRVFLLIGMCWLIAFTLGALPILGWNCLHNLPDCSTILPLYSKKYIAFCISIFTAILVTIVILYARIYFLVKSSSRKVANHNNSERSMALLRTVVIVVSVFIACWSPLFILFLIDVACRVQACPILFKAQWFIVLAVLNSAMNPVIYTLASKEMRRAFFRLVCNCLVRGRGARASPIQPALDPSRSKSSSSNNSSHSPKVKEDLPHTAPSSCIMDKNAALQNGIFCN
# S1P3 [5] = target: T2, S1P3; settings: read-out: ED50 value on S1P3; cited from earlier work
# Target sequence in this assay (Q99500 whole entry, species assumed): as above
# S1P1 [6] = target: T1, S1P1; settings: read-out: ED50 value, agonistic activity on S1P1; cited from earlier work
# [7] = target: sphingosine-1-phosphate receptor 1 (S1P1) (Homo sapiens, UniProt P21453); settings: binding; cited from earlier work
# sphingosine-1-phosphate receptor 1 (S1P1), sequence (P21453 whole entry, species assumed): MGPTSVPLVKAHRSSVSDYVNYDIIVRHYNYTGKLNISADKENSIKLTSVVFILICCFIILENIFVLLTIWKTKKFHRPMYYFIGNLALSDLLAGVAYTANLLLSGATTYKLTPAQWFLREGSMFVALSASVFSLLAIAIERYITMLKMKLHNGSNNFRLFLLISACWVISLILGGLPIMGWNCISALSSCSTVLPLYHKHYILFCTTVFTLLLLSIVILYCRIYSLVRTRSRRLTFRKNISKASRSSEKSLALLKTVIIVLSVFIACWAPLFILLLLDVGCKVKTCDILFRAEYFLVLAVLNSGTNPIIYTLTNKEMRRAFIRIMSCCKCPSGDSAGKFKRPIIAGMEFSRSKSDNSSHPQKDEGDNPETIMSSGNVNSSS
# [8] = target: recombinant dog S1P1 receptors; settings: read-out: EC50, agonist of S1P1 receptors; cited from earlier work
# S1P4 [9] = target: T3, S1P4 (Homo sapiens, UniProt O95977); settings: cited from earlier work
# T3 sequence (O95977 1-384): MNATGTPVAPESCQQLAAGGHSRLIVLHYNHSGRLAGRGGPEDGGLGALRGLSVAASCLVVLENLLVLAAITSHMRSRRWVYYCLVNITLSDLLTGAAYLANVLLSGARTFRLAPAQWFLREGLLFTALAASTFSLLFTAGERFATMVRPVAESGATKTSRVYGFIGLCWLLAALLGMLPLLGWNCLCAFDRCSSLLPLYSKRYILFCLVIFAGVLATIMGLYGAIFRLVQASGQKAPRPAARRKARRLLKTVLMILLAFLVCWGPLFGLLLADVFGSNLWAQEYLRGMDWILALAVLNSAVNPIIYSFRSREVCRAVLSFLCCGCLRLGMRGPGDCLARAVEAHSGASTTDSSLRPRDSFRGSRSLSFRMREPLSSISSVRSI
# human S1P5 = human S1P5 (Homo sapiens, UniProt Q9H228); settings: cited from earlier work
# human S1P5, sequence (Q9H228 whole entry): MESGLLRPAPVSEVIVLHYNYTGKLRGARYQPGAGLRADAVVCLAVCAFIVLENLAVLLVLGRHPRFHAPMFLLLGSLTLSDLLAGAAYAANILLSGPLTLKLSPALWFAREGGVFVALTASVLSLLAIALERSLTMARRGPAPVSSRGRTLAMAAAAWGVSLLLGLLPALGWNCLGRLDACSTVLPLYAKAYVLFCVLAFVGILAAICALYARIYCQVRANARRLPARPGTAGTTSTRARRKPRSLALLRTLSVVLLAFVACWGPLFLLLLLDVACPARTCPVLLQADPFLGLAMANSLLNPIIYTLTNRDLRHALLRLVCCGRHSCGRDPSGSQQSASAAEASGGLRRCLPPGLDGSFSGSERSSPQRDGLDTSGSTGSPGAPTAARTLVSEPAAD
# [10] = target: human Sphingosine-1-phosphate receptor 2 (S1P2 or S1PR2) (Homo sapiens, UniProt O95136); settings: cited from earlier work
# human Sphingosine-1-phosphate receptor 2 (S1P2 or S1PR2), sequence (O95136 whole entry): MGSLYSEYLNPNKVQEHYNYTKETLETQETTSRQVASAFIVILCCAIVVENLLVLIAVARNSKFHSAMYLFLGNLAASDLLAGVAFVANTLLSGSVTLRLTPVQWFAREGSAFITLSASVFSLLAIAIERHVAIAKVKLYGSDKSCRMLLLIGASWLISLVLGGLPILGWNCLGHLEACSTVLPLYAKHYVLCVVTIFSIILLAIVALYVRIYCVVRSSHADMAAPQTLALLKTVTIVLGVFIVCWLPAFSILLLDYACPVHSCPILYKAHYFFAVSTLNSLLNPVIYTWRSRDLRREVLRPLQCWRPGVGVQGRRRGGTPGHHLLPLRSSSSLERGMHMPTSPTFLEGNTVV
# S1P3 [11] = target: T2, S1P3; settings: cited from earlier work; remark: listed apart in the source
# Target sequence in this assay (Q99500 whole entry): as the sequence (Q99500 whole entry, species assumed) above
# [12] = target: recombinant monkey S1P1 receptors; settings: read-out: EC50, agonist of S1P1 receptors; cited from earlier work
# [13] = target: recombinant mouse S1P1 receptors (Mus musculus, UniProt O08530); settings: read-out: EC50, agonist of S1P1 receptors; cited from earlier work
# recombinant mouse S1P1 receptors, sequence (O08530 whole entry): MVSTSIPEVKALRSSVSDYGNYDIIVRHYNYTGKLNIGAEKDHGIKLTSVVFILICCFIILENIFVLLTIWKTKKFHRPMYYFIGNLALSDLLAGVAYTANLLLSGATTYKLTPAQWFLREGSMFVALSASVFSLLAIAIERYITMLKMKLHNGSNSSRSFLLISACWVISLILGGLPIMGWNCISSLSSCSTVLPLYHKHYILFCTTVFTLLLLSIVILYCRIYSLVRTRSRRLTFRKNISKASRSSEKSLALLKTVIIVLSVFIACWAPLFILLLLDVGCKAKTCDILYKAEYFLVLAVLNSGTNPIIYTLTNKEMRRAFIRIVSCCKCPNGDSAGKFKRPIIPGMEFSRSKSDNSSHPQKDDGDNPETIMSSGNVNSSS
# [14] = tested on: CD20-expressing Raji cell; assay: CDC positive control with Rituxan; format: cell-based, human
# Procedure: Test articles were evaluated for CDC activity, compared to negative control Human IgG4 isotype control, on TL1A-expressing HEK293 target cells. Rituxan (anti-CD20) was used as a positive technical control on CD20-expressing Raji cell. All test articles were used at a final top concentration of 10 μg/mL followed by a five-fold dilution series (7 points total), in addition to a no treatment control, in triplicate. Cells were incubated with test articles for 15 minutes at 37 C, then treated with human complement, at a final concentration of 25%, for 3 hours at 37 C, 5% CO2. Following incubation, cells were washed and resuspended in Propidium Iodide (P.I.) at a final concentration of 5 μg/mL prior to flow cytometry analysis. Total cells were examined by flow cytometry during sample acquisition. Data were plotted on an XY chart, graphing percentage P.I. positive cells against the log of the concentration and fit to a non-linear regression curve. Cell cytotoxicity in the presence of all test articles was not distinguishable from cell cytotoxicity in the presence of isotype control (Table 12).
# S1P2 = S1P2 (Homo sapiens, UniProt O95136); settings: cited from earlier work
# S1P2, sequence (O95136 whole entry, species assumed): as the sequence (O95136 whole entry) above
# S1P3 [15] = target: T2, S1P3; settings: cited from earlier work; remark: listed apart in the source
# Target sequence in this assay (Q99500 whole entry, species assumed): as the sequence (Q99500 whole entry, species assumed) above
# S1P4 [16] = target: T3, S1P4; settings: cited from earlier work; remark: listed apart in the source
# human whole blood = assay: Human cytokine release assay, whole blood; format: cell-based
# T1 sequence (P21453 whole entry, species assumed): as the sequence (P21453 whole entry, species assumed) above
molecule,measurement,setting,value
"CCCc1ccc(COc2ccc3c(c2)CCC(CN2CC(C(=O)O)C2)=C3C)c(OC)c1 [ceralifimod, 1-({6-[(2-methoxy-4-propylbenzyl)oxy]-1-methyl-3,4-dihydronaphthalen-2-yl}methyl) azetidine-3-carboxylic acid]",selectivity for S1P1 over S1P3,S1P1 [1],> 30 000 fold
same,"ED50, peripheral lymphocyte lowering (PLL) test",peripheral lymphocytes,0.029 mg/kg
CCCCCCCCc1ccc(CCC(N)(CO)CO)cc1 [FTY720],disease per histopathology,IL10−/− mice; colonic tissue,reduces disease per histopathology in a dose dependent manner
same,serum inflammatory cytokines (MSD),"IL10−/− mice; mouse, in vivo",Reduced levels of inflammatory cytokines
same,body weight loss,"IL10−/− mice; single agents, Groups 3-6",alleviates body weight loss in a dose-dependent manner
same,disease per histopathology,[2]; colonic tissue,reduces disease per histopathology in a dose dependent manner
same,serum inflammatory cytokines (MSD),"[2]; mouse, in vivo",Reduced levels of inflammatory cytokines
same,body weight loss,"[2]; single agents, Groups 3-6",alleviates body weight loss in a dose-dependent manner
"CCC/N=C1\S/C(=C\c2ccc(OC[C@H](O)CO)c(Cl)c2)C(=O)N1c1ccccc1C [ponesimod, (2Z,5Z)-5-[3-chloro-4-[(2R)-2,3-dihydroxypropoxy]benzylidene]-3-(2-methylphenyl)-2-(propylimino)-1,3-thiazolidin-4-one]","S1P1 selectivity, higher compared with the natural ligand",S1P1 [3]; S1P1 versus S1P3,approximately 650 fold
same,"potency for S1P1, higher compared with the natural ligand",S1P1 [3]; compared with the natural ligand,4.4
same,EC50,"S1P1 [3]; read-out: half maximal effective concentration (EC50), S1P1 activation",5.7 nM
same,"potency for S1P3, lower compared with the natural ligand",S1P3 [4],150 fold
"NC(CO)(CO)CCc1ccc(Sc2cccc(OCc3ccccc3)c2)cc1Cl [mocravimod, 2-amino-2-{2-[4-(3-benzyloxyphenylthio)-2-chlorophenyl]ethyl}-1,3-propanediol]",EC50,S1P3 [5],> 1000 nM
same,EC50,S1P1 [6],0.84 nM
same,selectivity for S1P1 over S1P2 and S1P5,[7],100 fold
"O=C(O)C[C@H]1CCc2c1[nH]c1ccc(OCc3ccc(C4CCCC4)c(C(F)(F)F)c3)cc21 [etrasimod, (R)-2-(7-(4-cyclopentyl-3-(trifluoromethyl)benzyloxy)-1,2,3,4-tetrahydrocyclopenta[b]indol-3-yl) acetic acid]",EC50,[8],4.19 nM
same,"relative efficacy, % of S1P response",S1P4 [9],63%
same,"relative efficacy, % of S1P response",human S1P5,73%
same,agonist or antagonist activity,[10],neither agonist nor antagonist activity was observed
same,agonist or antagonist activity,S1P3 [11],neither agonist nor antagonist activity was observed
same,EC50,[12],8.7 nM
same,EC50,[13],3.65 nM
"Rituxan: anti-CD20 antibody, positive control in the CDC assay",CDC bioactivity / complement-mediated lysis,[14],CDC bioactivity was observed; also recorded: expected increase in complement-mediated lysis
"CCCCCCCOc1ccc(CCC(N)(CO)CO)cc1C(F)(F)F [amiselimod, 2-amino-2-{2-[4-(heptyloxy)-3-(trifluoromethyl)phenyl]ethyl}propan-1,3-diol]",agonist activity for S1P2,S1P2,no distinct agonist activity
same,agonist activity for S1P3,S1P3 [15],no distinct agonist activity
same,agonist activity for S1P4,S1P4 [16],minimal agonist activity
Staphylococcal enterotoxin B [SEB],"cytokine release (IL-2, IL-6, IL-10, TNF, IFN-γ) in whole blood",human whole blood,"induced IL-2, IL-6, IL-10, TNF, and IFN-γ release"

# — US20260216326A1, “METHODS OF TREATING INFLAMMATORY DISEASES WITH COMBINATION OF TL1A INHIBITORS AND S1PR INHIBITORS” (Prometheus Biosciences, Inc., priority 2022, published 2026)
